According to patent publication US10287617B2, “Methods for in vitro—in vivo efficacy determination” (COLORADO STATE UNIVERSITY RESEARCH FOUNDATION, priority 2014, dated 2019):
Converted amounts (≈) assume the structure as drawn. “Also recorded” adds a separate entry of the source. Read-outs that look alike come from different tables or passages of the source. Marks after values point to notes of the source that are not given here.

What was measured:
[1] = system: M. tuberculosis H37Rv; assay: MIC / dose response by modified microplate Alamar Blue assay (MABA); assay type: cell-based, Mycobacterium tuberculosis; settings: for drug concentration response curve (kill curve) type: FIG. 3
[2] = system: non-replicating M. tuberculosis H37Rv; assay: Low oxygen study, non-replicating bacilli; assay type: cell-based, Mycobacterium tuberculosis; settings: for Log10 (CFU+/−SD): 96 h post-treatment; for % Growth Reduction: benzimidazoles at 4 μg/mL; for Log10 (CFU) Reduction: vs control
Procedure: The low oxygen studies were performed similar to those described previously (Lenaerts et al., Antimicrob. Agents Chemother. 2005; 49:2294-2301). Briefly, M. tuberculosis H37Rv were diluted to an O.D. 600 nm of 0.003 in 7H9 media containing Methylene Blue (1.5 μg/mL) and were grown in 16×125 mm Hungate tubes with rubber septa (VWR cat#89167-170). The tubes, with 11 mL of the diluted cultures were incubated at 37° C. under agitation (150 rpm). […] One week after the reduction of methylene blue, approximately 28 days from the start, drug treatment was initiated with the test and control drugs. Prior to treatment, an aliquot was removed and plated for a CFU count to serve as a control. Isoniazid and metronidazole were used in the studies as comparative controls.
Recovery of aliquots for plating and the addition of drugs were conducted through septa using syringes to maintain the low-oxygen conditions. Ninety-six hours post-treatment, 1 mL of the culture was removed from the oxygen depleted cultures, the aliquot was serial diluted and the dilutions were plated. Log10 CFUs were calculated for the different treatments and concentrations. Percentage growth reduction from the controls was calculated and reported.

[3] = system: M. tuberculosis H37Rv; assay: Acute infection model in immune incompetent GKO mice; assay type: in vivo, mouse; settings: compound 150 mg/kg IP q.d. 9 days, isoniazid 25 mg/kg q.d.
Procedure: (§1) Compound efficacy was assessed in two murine models of infection based on the short term model described previously (Lenaerts et al., Antimicrob. Agents Chemother. 2003; 47:783-785). All aerosol infections were performed using a Middlebrook aerosol generation devise (Glas-Col, Terre Haute, Ind.).
(§2) In the first infection model, immune incompetent C57BL/6-Ifngtm1 ts gamma interferon gene disruption (GKO) mice were infected with M. tuberculosis H37Rv. Animals were dosed q.d. IP beginning at day 12 post-infection with 150 mg/kg of compound in 38% ethanol and 10% Solutol (e.g., Solutol HS 15) for 9 consecutive days. In the second animal model, immune competent C57BL/6 mice were infected with M. tuberculosis Erdman (TMCC 107). Animals were dosed b.i.d. IP with 100 mg/kg compound in 25% ethanol and 25% Solutol beginning at day 5 post-in feet ion for 10 consecutive days. Isoniazid was used as a comparative positive control and was delivered q.d. at 25 mg/kg as a positive control.
(§3) In both studies, animals were sacrificed and necropsied, bacterial burden in lungs or spleens were quantified on 7H11 agar containing carbenicillin (Sigma, C1389) and cycloheximide (Sigma, C7698) and upon incubation for three weeks bacterial colony forming units were enumerated. Outliers were identified by the Grubbs' Test and a one-way t-test at a 95% confidence interval was used to compare treatment groups and controls, to calculate p-values, and to produce bar graphs and scatter plots GraphPad Prism Version 5.0d for Mac OS X (GraphPad Software, San Diego Calif., USA www.graphpad.com).

[4] = system: M. tuberculosis Erdman; assay: Dissemination model in immune competent C57BL/6 mice; assay type: in vivo, mouse; settings: isoniazid 25 mg/kg q.d.; for reduction of bacterial load in the spleen: compound 100 mg/kg IP b.i.d. 10 days
Procedure: as §1, §2, §3

[5] = system: M. tuberculosis Erdman; assay type: in vivo; settings: for Δ Lungs (difference between means of Test and Control Groups) / Δ Spleen (difference between means of Test and Control Groups) / Log10CFU Lungs / Log10CFU Spleen: 50 mg/kg b.i.d. (Inh q.d.); for Log10CFU Lungs / Log10CFU Spleen: day 15
[6] = system: Mycobacteria tuberculosis; assay: MIC and drug response curve type (Tables A and B); assay type: cell-based, Mycobacterium tuberculosis; settings: Table A; for Curve: drug response curve type; for MIC: in µg/mL
Procedure: A drug concentration response curve can be generated by graphing the log10 drug concentrations (μg/mL) against the difference in growth between the drug-treated wells and control wells. See FIG. 3C, and FIG. 5 (entries for SB-P23D8 and SB-P26D9). A NREBA is indicative of bacteriostatic activity above the MIC.
(§4) Further analysis using the methods described herein was performed on the compounds found in Tables A and B (bold font compounds are shown in FIG. 11) resulting in the data found therein.
MIC values were determined for the benzimidazoles using a modified 96-well microplate Alamar Blue (resazurin) assay (MABA) (see Kumar et al., J. Med. Chem. 2011; 54:374-381; Collins and Franzblau, Antimicrob. Agents Chemother. 1997; 41:1004-1009). Dose response curves were generated from the MABA assay for compounds by graphing the log10 drug concentrations against the difference in growth between the drug-treated wells and control wells using GraphPad Prism Version 5.0d for Mac OS X (GraphPad Software, San Diego Calif., USA, www.graphpad.com). For time dose studies, bacterial growth in the presence of compound was monitored by the O.D. 600 nm. […] The values were plotted against time using GraphPad Prism Version 5.0d for Mac OS X (GraphPad Software, San Diego Calif., USA, www.graphpad.com).

[7] = system: M. tuberculosis; assay: Benzimidazoles activity tested in animals (animal models of infection, Table A); assay type: in vivo, mouse; settings: Table A
Procedure: as §4, §1

[8] = system: M. tuberculosis H37Rv; assay: Growth inhibition / time dose curves (OD600 and CFU); assay type: cell-based, Mycobacterium tuberculosis; settings: for reduction in number of viable bacteria: 1×MIC
[9] = system: M. tuberculosis TN587; assay: microbe, parasite or virus in culture; assay type: cell-based, Mycobacterium tuberculosis
[10] = system: M. tuberculosis NHN382; assay: microbe, parasite or virus in culture; assay type: cell-based, Mycobacterium tuberculosis
[11] = system: M. tuberculosis W210; assay: microbe, parasite or virus in culture; assay type: cell-based, Mycobacterium tuberculosis
[12] = system: M. tuberculosis NHN20; assay: microbe, parasite or virus in culture; assay type: cell-based, Mycobacterium tuberculosis
[13] = system: Vero cells; assay: Cytotoxicity assay (resazurin, 72 h); assay type: cell-based; settings: for cytotoxicity in Vero cells: at 200 μg/mL
Procedure: The cytotoxicity assay was performed as described previously^16. Briefly compounds were serially diluted in 96 well plates.

[14] = Oxidative metabolic lability in human liver microsomes; settings: 5 μM, 1 mg/mL microsomal protein, 20 min
Procedure: (§5) Microsomal fractions were prepared in the Drug Disposition Domain at DSAR Montpellier (371 rue du Pr. J. Blayac, 34184 Montpellier Cedex 04, France). […] The flavin-containing monooxygenases (FMO)-dependent reactions were run in the presence of bovine serum albumin (BSA, 0.1%) for the duration of 0 and 20 min (with or without microsomal proteins and/or cofactors). […] Following protein precipitation with acetonitrile and their removal by centrifugation, supernatant fluids were analyzed by LC/MS-MS.
(§6) Thermo Finnigan TSQ Quantum Ultra instrument, ESI positive ion ionization mode. Each compound is studied in duplicates. Results are expressed in percentage of lability (or total metabolism). Total metabolism=[1−(UC_Peak Area+Cofactor at T20)/(UC_Peak Area Reference at T0)]×100
(§7) The reactions were prepared as described and were run in the presence of bovine scrum albumin (BSA, 0.1%) for the duration of 0 and 20 min (with or without microsomal proteins and/or cofactors). Enzyme activity was stopped, the protein was precipitated and removed by centrifugation. The supernatant fluids were analyzed by LC/MS-MS. […] A Thermo Finnigan TSQ Quantum Ultra instrument, ESI positive ion ionization mode was used for MS/MS. Each compound was studied in duplicates. Results are expressed in percentage of lability (or total metabolism) using the following formula: Total metabolism=[1−(UC_Peak Area+Cofactor at T20)/(UC_Peak Area Reference at T0)]×100 where UC=Unchanged Compound; “Reference” sample was NADPH for liver microsomal preparation.

[15] = Oxidative metabolic lability in mouse liver microsomes; settings: 5 μM, 1 mg/mL microsomal protein, 20 min
Procedure: as §5, §6, §7

[16] = system: M. tuberculosis clinical isolates; assay: microbe, parasite or virus in culture; assay type: cell-based, Mycobacterium tuberculosis; settings: Mycobacterium tuberculosis, read-out: minimal inhibitory concentrations
[17] = system: M. tuberculosis H37Rv; settings: previously reported SAR study; cited from earlier work
[18] = system: M. tuberculosis clinical isolates; settings: previously reported; cited from earlier work

Row | SMILES | drug concentration response curve (kill curve) type [1] | Log10 (CFU+/−SD) [2] | % Growth Reduction [2] [%] | Log10 (CFU) Reduction [2] | reduction of bacterial load in spleen [3] | reduction of bacterial load in the lungs [3] [log10 CFU] | Δ Lungs (difference between means of Test and Control Groups) ([5]; IP) | Δ Spleen (difference between means of Test and Control Groups) ([5]; IP) | Log10CFU Lungs ([5]; IP) [Log10 CFU] | Log10CFU Spleen ([5]; IP) | Δ Lungs (difference between means of Test and Control Groups) ([5]; PO) | Δ Spleen (difference between means of Test and Control Groups) ([5]; PO) | Log10CFU Lungs ([5]; PO) [Log10 CFU] | Log10CFU Spleen ([5]; PO) [Log10 CFU] | Curve [6] | MIC [6] | Efficacy Lung [7] | Efficacy Spleen [7] | Liver Microsome Lability Human [14] [%] | Liver Microsome Lability Mouse [15] [%] | further results
1 | NNC(=O)c1ccncc1 [Isoniazid, reference compound] | sigmoidal kill curve | 5.15 ± 0.2 | 36 | 0.2 | below the level of detection | 1.8 | −6.57*** Log10 CFU | −4.96*** Log10 CFU | 0.12 ± 0.16 | 0 ± 0 Log10 CFU | −6.31*** Log10 CFU | −3.89*** Log10 CFU | 0 ± 0 | 0 ± 0 | – | – | – | – | – | – | reduction of bacterial load in the spleen [4]: below detectable levels; reduction of bacterial load in the lung [4]: below detectable levels
2 | CCCCOC(=O)Nc1cc2nc(C3CCCCC3)[nH]c2cc1N(CC)CC [SB-P3G2] | sigmoidal kill curves | 4.80 ± 0.21 | 72 | 0.48 | 0.41±0.36 log10 CFU | 0.71±0.17 | – | – | – | – | – | – | – | – | Sigmoid | 1.25 | Yes | Yes | – | – | MIC range ([1]; H37Rv and Erdman strains): 0.78 to 1.5 µg/mL; concentrations at which bacterial growth was inhibited ([8]; O.D. 600 nm growth curves, 5 days): greater than 0.62 μg/mL; reduction of bacterial load in the spleen [4]: 1.6±0.49 log10
3 | CN(C)c1cc2[nH]c(C3CCCCC3)nc2cc1NC(=O)c1ccc(OC(F)(F)F)c(F)c1F [SB-P17G-A33] | – | – | – | – | – | – | −2.10** Log10 CFU | −3.36*** Log10 CFU | 4.59 ± 0.71 | 1.60 ± .0 Log10 CFU | −1.72*** Log10 CFU | −2.49*** Log10 CFU | 4.58 ± 0.21 | 1.40 ± 1.24 | Sigmoid | .5-.625 | Yes | Yes | 5 | 17 | MIC ([1]; H37Rv): 0.39 ± 0.16 µg/mL (≈ 0.808 µM); MIC [9]: 0.31 ± 0 µg/mL (≈ 0.643 µM); MIC [10]: 0.37 ± 0.24 µg/mL (≈ 0.767 µM); MIC [11]: 0.47 ± 0.22 µg/mL (≈ 0.974 µM); MIC [12]: 0.39 ± 0.33 µg/mL (≈ 0.808 µM); reduction in number of viable bacteria ([8]; day 2): 0.8-1.7 Log10 CFU; Vero Cells (cytotoxicity IC50) ([13]; 72 h): >200 µg/mL; cytotoxicity in Vero cells [13]: not cytotoxic; also recorded: non-toxic
4 | CN(C)c1cc2[nH]c(C3CCCCC3)nc2cc1NC(=O)c1ccc(C(F)(F)F)cc1F [SB-P17G-A42] | – | – | – | – | – | – | −5.78*** Log10 CFU | −4.96*** Log10 CFU | 0.91 ± 0.64 | 0 ± 0 Log10 CFU | −5.65*** Log10 CFU | −3.89*** Log10 CFU | 0.66 ± 0.43 | 0 ± 0 | Sigmoid | .156 | Yes | Yes | 12 | 13 | MIC ([1]; H37Rv): 0.18 ± 0.1 µg/mL (≈ 0.401 µM); MIC ([1]; Mycobacterium tuberculosis, H37RV): 0.18 ± 0.1 µg/mL (≈ 0.401 µM); MIC ([9]; Mycobacterium tuberculosis): 0.24 ± 0.11 µg/mL (≈ 0.535 µM); MIC ([10]; Mycobacterium tuberculosis): 0.16 µg/mL (≈ 0.357 µM); MIC ([11]; Mycobacterium tuberculosis): 0.31 µg/mL (≈ 0.691 µM); MIC ([12]; Mycobacterium tuberculosis): 0.16 µg/mL (≈ 0.357 µM); reduction in number of viable bacteria ([8]; day 2): 2.5 Log10 CFU; reduction in number of viable bacteria ([8]; day 6): ~4 Log10 CFU; reduction of bacterial load in the lungs ([5]; 50 mg/kg b.i.d. via either IP or PO): 5.6-5.8 Log10 CFU; reduction of bacterial load in the lungs ([5]; delivered IP, 50 mg/kg b.i.d.): 5.8 Log10 CFU; reduction of bacterial load in the lungs ([5]; delivered PO, 50 mg/kg b.i.d.): 5.6 Log10 CFU; cytotoxicity in Vero cells [13]: not cytotoxic; also recorded: non-toxic; MIC [16]: 0.16 to 0.47 µg/mL (≈ 0.357 to 1.05 µM)
5 | CCCCOC(=O)Nc1cc2nc(C3CCCCC3)[nH]c2cc1N(C)C [SB-P17G-C2] | – | – | – | – | – | – | – | – | – | – | – | – | – | – | Sigmoid | .063 | Yes (.3464) | No | 90 | 96 | MIC [17]: 0.06 µg/mL (≈ 0.167 µM); MIC against clinical isolates [18]: 0.06 to 0.13 µg/mL
